The record followed here is publication doi:10.1101/2024.12.25.630315 (bioRxiv, 2024).

Assay [1] concerns the target T1, Nectin-4 (Homo sapiens, UniProt Q96NY8).
T1 construct: host or cells: HT1376, SCaBER, T24, RT112, UC9, UC14 urothelial carcinoma cells; HT1376 xenografts in NSG mice
T1 sequence (Q96NY8 32-510): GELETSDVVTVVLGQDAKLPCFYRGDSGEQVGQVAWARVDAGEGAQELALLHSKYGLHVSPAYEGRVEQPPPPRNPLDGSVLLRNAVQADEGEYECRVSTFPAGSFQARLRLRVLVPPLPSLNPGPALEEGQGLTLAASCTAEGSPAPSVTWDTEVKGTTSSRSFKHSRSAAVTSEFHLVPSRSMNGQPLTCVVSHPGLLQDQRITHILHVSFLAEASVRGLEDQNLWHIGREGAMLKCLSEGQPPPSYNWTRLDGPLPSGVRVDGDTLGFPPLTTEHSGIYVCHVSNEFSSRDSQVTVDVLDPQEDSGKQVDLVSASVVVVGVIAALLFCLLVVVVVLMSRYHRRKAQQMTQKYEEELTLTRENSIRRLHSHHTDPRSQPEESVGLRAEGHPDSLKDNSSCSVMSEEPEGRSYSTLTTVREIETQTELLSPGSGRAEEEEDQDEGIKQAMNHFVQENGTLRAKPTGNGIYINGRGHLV
In words: [^68Ga]AJ647 binding to SCaBER cells with and without EV. The following applies: SCaBER cells (Nectin-4 positive); EV 60 nM for 15 min; P<0.0001.

The test system of assay [2] is HT1376 tumors. In words: EV therapy response and PET target engagement, HT1376 xenografts. Type of assay: in vivo, mouse. How it is done:
Mice with tumor volume of ~100-150 mm^3 were injected with ~[…] (7.4 MBq) of [^68Ga]AJ647 in […] of 5% ethanol in saline intravenously and anesthetized under 2.5% isoflurane. PET-CT images were acquired at 60 minutes after radiotracer injection at 5 min/bed in an ARGUS small-animal PET/CT scanner (Sedecal, Madrid, Spain) as described (n=3 unless otherwise noted). PET-MR images were acquired on a simultaneous 7T Bruker PET-MR scanner. Dynamic imaging was conducted to evaluate pharmacokinetics of [^68Ga]AJ647. [^68Ga]AJ647 was injected (with help of catheter) after mice was anesthetized under 2.5% isoflurane on the equipment bed. All PET data were reconstructed using the two-dimensional ordered subsets-expectation maximization algorithm (2D-OSEM) and corrected for radioactive decay and dead time. The SUV values were calculated by finding percent of injected activity (%IA) based on a calibration factor obtained from a known radioactive quantity, then normalizing by mice weight. […] For change in accessible Nectin-4 levels following EV treatment, ΔSUV was calculated by subtracting baseline (pre-treatment) uptake from post-therapy uptake of [^68Ga]AJ647. Target engagement was quantified by normalizing this change by initial SUV in same subject controls. […] Mice body weight and tumor measurements were recorded until saline group tumors reached 1500 mm^3 average size. […] Briefly, the percentage change in volume relative to baseline: % tumor volume change (ΔVolt) = 100% × ((Vt -[…]). BestResponse was the lowest ΔVolt for t ≥ 10 days. For each time t, the average ΔVolt from t = 0 to t was calculated, with the BestAvgResponse defined as the lowest average ΔVolt for t ≥ 10 days. Modified response criteria (mRECIST), adapted from RECIST21, were as follows: mCR (BestResponse < -95%, BestAvgResponse < -40%), mPR (BestResponse < -50%, BestAvgResponse < -20%), mSD (BestResponse < 35%, BestAvgResponse < 30%), and mPD (all others). We defined mPD as non-responders (0 response) and stable disease or better as responders (1 response). […]

For enfortumab vedotin [EV], the “effect of EV on [^68Ga]AJ647 binding” value in assay [1] is “significantly reduced”. Besides, the “share of mice with less than 50% target engagement” value in assay [2] (EV 6 and 15 mg/kg groups, day 6 PET) was determined as 50%. Also, the “responders (mRECIST, stable disease or better)” value in assay [2] (EV-treated mice with higher target engagement, irrespective of dose) was 7/8; in assay [2] (EV-treated mice with less than 30% target engagement), 0/12.
